# Data: patent US20190255073A1, “ESTERS OF 3-POLYAMINE DERIVATIVES OF BILE ACIDS FOR THE TREATMENT OF INFECTIONS” (VIRBAC, priority 2016, published 2019)
# Like-named read-outs stand apart in the source and are kept apart here.
# Key:
# [1] = system: E. faecalis ATCC29212; test: MIC determination by microplate dilution, E. faecalis human strain; assay type: cell-based, Enterococcus faecalis; conditions: Enterococcus faecalis, ATCC29212, Gram-positive, Mueller-Hinton medium, 24 h, 37° C.
# Description: (§1) 1) Preparation of the Preculture
# (§2) A negative control (2 mL of sterile culture medium)
# (§3) A positive control (1940 μL of culture medium+40 μL of DMSO+20 μL of bacterial suspension) from a thawed biological strain (the biological strains are stored at −80° C. in glycerol).
# (§4) The tubes were incubated at 37° C. for 24 hours at 100 rpm.
# (§5) The microorganisms were handled under a type L2 laboratory fume cupboard and, before any handling, a UV cycle was programmed and only sterile material was used. […] The chemical compounds to be tested were prepared in a DMSO/methanol mixture (50/50) at a concentration of 5 mg/mL.
# (§6) 2) Preparation of the Microplate for the Determination of the Minimum Inhibitory Concentration (MIC)
# (§7) After 24 hours of incubation, a measurement of the optical density was taken using a spectrophotometer at 600 nm, collecting 100 μL of the bacterial suspension diluted in 900 μL of the sterile culture medium. This test required the use of a 96-well plate and the required volume of the microbial suspension to be seeded was calculated for an OD corresponding to a value equal to 0.01 in each well. In this plate, the first line corresponded to the negative control (195 μL of sterile culture medium in each well), the second line to the positive control (seeded culture medium supplemented with 2% of DMSO), the third line was loaded twice with bacterial suspension, 8 μL of test product were placed in each well. Thereafter, a 0.5 cascade dilution was performed from this line.
# (§8) The first column served as inhibition control. A sterile filter was then placed on the microplate, allowing the passage of gases but not of contaminants. The microplate was incubated at 37° C. under a humid atmosphere for 24 hours.
# (§9) NB: The medium used is Mueller-Hinton (MH) medium for bacteria. All the tests were performed in duplicate.
# (§10) 4) Reading of the Results
# (§11) After incubation, the filter was replaced with a transparent film, and an OD reading was then taken in an iEMS plate spectrophotometer at 620 nm. Calculation of the minimum inhibitory concentration (MIC) was performed.
# [2] = system: P. aeruginosa (1051575); test: MIC determination by microplate dilution, P. aeruginosa animal strain; assay type: cell-based, Pseudomonas aeruginosa; conditions: Pseudomonas aeruginosa, Gram-negative, Mueller-Hinton medium, 24 h, 37° C.
# Description: as §1, §2, §3, §4, §5, §6, §7, §8, §9, §10, §11
# [3] = system: P. aeruginosa ATCC27853; test: MIC determination by microplate dilution, P. aeruginosa human strain; assay type: cell-based, Pseudomonas aeruginosa; conditions: Pseudomonas aeruginosa, ATCC27853, Gram-negative, Mueller-Hinton medium, 24 h, 37° C.
# Description: as §1, §2, §3, §4, §5, §6, §7, §8, §9, §10, §11
# [4] = system: E. coli (1956); test: MIC determination by microplate dilution, E. coli animal strain; assay type: cell-based, Escherichia coli; conditions: Escherichia coli, Gram-negative, Mueller-Hinton medium, 24 h, 37° C.
# Description: as §1, §2, §3, §4, §5, §6, §7, §8, §9, §10, §11
# [5] = system: C. albicans; test: Antifungal activity, cascade microdilution, C. albicans; assay type: cell-based, Candida albicans; conditions: Candida albicans; compounds as hydrochloride in water; MH medium; 24 h; read-out: IC50 (μg/mL) C. albicans
# [6] = system: S. aureus (340); test: MIC determination by microplate dilution, S. aureus animal strain; assay type: cell-based, Staphylococcus aureus; conditions: Staphylococcus aureus, Gram-positive, Mueller-Hinton medium, 24 h, 37° C.
# Description: as §1, §2, §3, §4, §5, §6, §7, §8, §9, §10, §11
# [7] = system: E. coli ATCC28922; test: MIC determination by microplate dilution, E. coli human strain; assay type: cell-based, Escherichia coli; conditions: Escherichia coli, ATCC28922, Gram-negative, Mueller-Hinton medium, 24 h, 37° C.
# Description: as §1, §2, §3, §4, §5, §6, §7, §8, §9, §10, §11
# [8] = system: S. intermedius (1051997); test: MIC determination by microplate dilution, S. intermedius animal strain; assay type: cell-based, Staphylococcus intermedius; conditions: Staphylococcus intermedius, Gram-positive, Mueller-Hinton medium, 24 h, 37° C.
# Description: as §1, §2, §3, §4, §5, §6, §7, §8, §9, §10, §11
# [9] = system: S. aureus ATCC25923; test: MIC determination by microplate dilution, S. aureus human strain; assay type: cell-based, Staphylococcus aureus; conditions: Staphylococcus aureus, ATCC25923, Gram-positive, Mueller-Hinton medium, 24 h, 37° C.
# Description: as §1, §2, §3, §4, §5, §6, §7, §8, §9, §10, §11
# [10] = system: CHO-K1 cells; test: WST1 cytotoxicity test on CHO-K1 cells; assay type: cell-based, Chinese hamster; conditions: Cricetulus griseus, read-out: IC50 (μg/mL) CHO
# Description: Test WST1 was used to measure the cytotoxic activity of the products. This is a colorimetric test which makes it possible to measure the viability and the degree of cell proliferation. It is based on cleavage of the colorless tetrazolium salts WST-1 (4-[3-(4-iodophenyl)-2-(4-nitrophenyl)-2H-5-tetrazolio]-1,3-benzene disulfonate) with mitochondrial dehydrogenases to the yellow-colored formazan derivative, which may be quantified by spectrophotometry at 420-480 nm.
# The WST1 test was performed on Chinese hamster ovary cells. The CHO-K1 cells (ATCC, USA) are kept in culture on McCoy's 5A medium supplemented with 10% fetal calf serum, 2 mM of L-glutamine and a mixture of penicillin-streptomycin (100 U/ml: 10 μg/mL). The culture is incubated at 37° C. under an atmosphere enriched in CO2 (5%), and subcultured every two days.
# The cells are transferred into 96-well plates (25 000 cells/mL) in whole McCoy's 5A medium, and maintained for 24 hours at 37° C. under a humid atmosphere enriched in CO2 (5%). Increasing concentrations of test products are added to the wells in double tests and 8 growth controls containing the cells in the medium alone are included in each series of tests. After 24 hours at 37° C. (5% CO2), the culture medium is removed, the cells are rinsed in phosphate buffer (PBS) and 50 μL of PBS containing 10% of reagent WST1 are added to each well. After 20 minutes of incubation at 37° C., the results are read by spectrophotometry at 450 nm.
# The results are expressed in dose-response relationships, modeled by nonlinear regression analysis using the TableCurve software. The 50% inhibitory concentration (IC50) represents the concentration of product that is capable of reducing the cell viability by 50%.
# [11] = system: P. aeruginosa (1051575); test: Potentiation of the doxycycline activity at 2 μg/mL; assay type: cell-based, Pseudomonas aeruginosa; conditions: in combination with doxycycline 2 μg/mL; 24 h, 37°
Structure (SMILES),MIC [1] [µg/mL],MIC [2] [µg/mL],MIC [3] [µg/mL],MIC [4] [µg/mL],IC50 [5] [µg/mL],MIC [6] [µg/mL],MIC [7] [µg/mL],MIC [8] [µg/mL],MIC [9] [µg/mL],"IC50 ([10]; CHO-K1, CHO (Example 7)) [µg/mL]",MIC - P. aeruginosa (1051575): content of compound of formula (I) to restore the doxycycline activity (at 2 μg/mL) [11] [µg/mL],"IC50 ([10]; CHO-K1, 24 h) [µg/mL]"
"CC(C)OC(=O)CC[C@@H](C)[C@H]1CCC2C3C(C[C@H](O)[C@@]21C)[C@@]1(C)CC[C@H](NCCNCCNCCNCCNCCN)CC1C[C@H]3O (stereo partly drawn) [(21), isopropyl 3β-(pentaethylenehexamine)cholate]",33,66,66,66,66,33,33,16,33,105,,
"CC(C)OC(=O)CC[C@@H](C)[C@H]1CCC2C3C(CC[C@@]21C)[C@@]1(C)CC[C@H](NCCCNCCCNCCCN)CC1C[C@@H]3O (stereo partly drawn) [(51), isopropyl 3β-norsperminoursodeoxycholate]",62,30,30,62,,15,30,4,15,,2,30
"CC(C)OC(=O)CC[C@@H](C)[C@H]1CCC2C3CCC4C[C@@H](NCCCNCCCNCCCN)CC[C@]4(C)C3C[C@H](O)[C@@]21C (stereo partly drawn) [Compound (1), isopropyl 3β-norsperminodeoxycholate]",8,2,8,10,,2,8,2,4,,2,50
"CC(C)OC(=O)CC[C@@H](C)[C@H]1CCC2C3CCC4C[C@@H](NCCCNCCCN)CC[C@]4(C)C3C[C@H](O)[C@@]21C (stereo partly drawn) [Compound (2), isopropyl 3β-norspermidinodeoxycholate]",14,14,14,28,,3,14,3,3,,3,60
"COC(=O)CC[C@@H](C)[C@H]1CCC2C3CCC4C[C@@H](NCCCNCCCNCCCN)CC[C@]4(C)C3C[C@H](O)[C@@]21C (stereo partly drawn) [Compound (3), methyl 3β-norsperminodeoxycholate]",2,2,2,14,,4,29,1,2,,4,6
"CC(C)OC(=O)CC[C@@H](C)[C@H]1CCC2C3C(C[C@H](O)[C@@]21C)[C@@]1(C)CC[C@H](NCCCNCCCNCCCN)CC1C[C@H]3O (stereo partly drawn) [Compound (6), isopropyl 3β-norsperminocholate]",> 60,30,30,30,,8,30,16,8,,4,90
"COC(=O)CC[C@@H](C)[C@H]1CCC2C3C(CC[C@@]21C)[C@@]1(C)CC[C@H](NCCCNCCCNCCCN)CC1C[C@@H]3O (stereo partly drawn) [Compound (12), methyl 3β-norsperminoursodeoxycholate]",30,7,30,60,,4,4,1,7,,2,20
"CC(C)OC(=O)CC[C@@H](C)[C@H]1CCC2C3C(CC[C@@]21C)[C@@]1(C)CC[C@H](NCCCNCCCN)CC1C[C@@H]3O (stereo partly drawn) [Compound (14), isopropyl 3β-norspermidinoursodeoxycholate]",,110,,110,28,55,,12.5,,200,,
